Here are results for 28 molecules from US20090069302A1 (SMITHKLINE BEECHAM CORPORATION, priority 2006, published 2009).

Each structure is given as a SMILES string. A value given as a limit tells only on which side of the number the result lay.

The target in the experiment is T1, AXOR109 (Homo sapiens, UniProt Q8TDU6).
T1 construct: expressed in transfected cells; host or cells: melanophore cells, transfected by electroporation
T1 sequence (Q8TDU6 1-330): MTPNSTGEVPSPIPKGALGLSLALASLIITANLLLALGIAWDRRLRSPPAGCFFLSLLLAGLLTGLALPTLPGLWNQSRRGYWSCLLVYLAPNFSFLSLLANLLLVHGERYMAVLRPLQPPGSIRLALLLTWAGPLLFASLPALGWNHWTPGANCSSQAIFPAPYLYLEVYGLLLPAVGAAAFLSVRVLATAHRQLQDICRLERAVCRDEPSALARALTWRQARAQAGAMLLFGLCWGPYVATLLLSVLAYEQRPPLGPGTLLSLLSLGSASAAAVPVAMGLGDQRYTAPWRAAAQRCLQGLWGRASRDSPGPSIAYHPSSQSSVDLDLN
The experiment in a line: Human AXOR109/Melanophore Assay. As to conditions: melanophore assay; for Emax: 1 h, normalized to alpha-MSH system max; for EC50: AXOR109 transfected melanophores. In kind it is cell-based. Here is the method: AXOR109 is a Gs-coupled receptor and therefore increases intracellular cAMP leading to melanosome dispersion. Compounds of the present invention were characterized in a melanophore assay as described in Jayawickreme C K, et al., Current Protocols in Pharmacology (2005) 12.9.1-12.9.16. Briefly, melanophore cells are transfected by electroporation with AXOR109 expressing cDNA. Cells are then plated in 384 well clear bottom plates at 8E3 cells per well in 50 μl of conditioned fibroblast media (CFM). Compounds to be tested are serially diluted 3-fold in DMSO and further diluted 1:100 with melanophore assay buffer (MAB)+10 nM Melatonin to yield 11 point concentration response curves. Following 2 hour incubation with MAB+1% DMSO+10 nM Melatonin, initial transmittance is read on a TwisterII/Spectramax plate reader. Compounds are then added to the cells and incubated for 1 hour, and final transmittance is read as before. Results are compared to vehicle (MAB+1% DMSO+10 nM Melatonin) and to a positive control (MAB+1% DMSO+10 nM Melatonin+200 nM alpha-MSH). Data are calculated for each well as follows: 1-(Transmitance-final/Transmitance-initial). Each well result is then normalized to alpha-MSH, the system max control for Gs/Gq coupled receptors using the following equation: (ObjX−Control1)/(Control2−Control1)*100. The percent system max is used to generate the pEC50 using the equation: y=((Vmax*x̂n)/(K̂n+x̂n))+Y2. Acceptable Z-prime values should be >0.4. Compounds of the present invention have a pEC50≧5.0 in the above described assay.

In general, Emax refers to the greatest response seen or fitted, relative to the assay's reference. For orientation: EC50 means the concentration at which the effect is half-maximal. A high value points to weaker potency. `COc1ccc(S(=O)(=O)N2CCN(S(=O)(=O)c3ccc(OC)c(OC)c3)CC2)cc1` [Example 6, 1-{[3,4-bis(methyloxy)phenyl]sulfonyl}-4-{[4-(methyloxy)phenyl]sulfonyl}piperazine] gave an Emax of 0 to 50% and a half-maximal effective concentration (EC50) of 126 to 1000 nM. Taken in the same sequence, the figures for `COc1ccc(S(=O)(=O)N2CCN(S(=O)(=O)c3ccc(OC)c(OC(F)(F)F)c3)CC2)cc1OC` [Example 91] were 76 to 100% and 126 to 1000 nM.

`COc1ccc(S(=O)(=O)N2CC(C)N(S(=O)(=O)c3ccc(OC)c(OC)c3)C(C)C2C)cc1OC` (stereo not shown) [Example 39, 1,4-bis{[3,4-bis(methyloxy)phenyl]sulfonyl}-2,3,5-trimethylpiperazine] had an Emax of 0 to 50% and an EC50 of 1260 to 10000 nM. Taken in the same sequence, the figures for `COc1ccc(S(=O)(=O)N2CCC(N(CC3CCC3)S(=O)(=O)c3ccc(OC)c(OC)c3)C2)cc1OC` (stereo not shown) [Example 58, N-(1-{[3,4-bis(methyloxy)phenyl]sulfonyl}-3-pyrrolidinyl)-N-(cyclobutylmethyl)-3,4-bis(methyloxy)benzenesulfonamide] were 76 to 100% and 1260 to 10000 nM.

The molecule `COc1cccc(S(=O)(=O)N(C)CCN(C)S(=O)(=O)c2ccc(OC)c(OC)c2)c1` [Example 10, N-methyl-N-[2-(methyl{[3-(methyloxy)phenyl]sulfonyl}amino)ethyl]-3,4-bis(methyloxy)benzenesulfonamide] showed a maximum response (Emax) of 76 to 100% and an EC50 of 126 to 1000 nM. Taken in the same sequence, the figures for `COc1ccc(S(=O)(=O)N(C)CCN(C2CC2)S(=O)(=O)c2ccc(OC)c(OC)c2)cc1OC` [Example 88] were 76 to 100% and 126 to 1000 nM. The molecule `COc1ccc(S(=O)(=O)N2CCN(S(=O)(=O)c3ccc(C)cc3OC)CC2)cc1OC` [Example 3, 1-{[3,4-bis(methyloxy)phenyl]sulfonyl}-4-{[4-methyl-2-(methyloxy)phenyl]sulfonyl}piperazine] gave an Emax of 51 to 75% and a concentration for a half-maximal effect (EC50) of 1260 to 10000 nM. Taken in the same sequence, the figures for `CCc1cc(S(=O)(=O)N2C[C@H](C)N(S(=O)(=O)c3ccc(OC)c(OC)c3)C[C@@H]2C)ccc1OC` [Example 68, (2S,5S)-1-{[3,4-bis(methyloxy)phenyl]sulfonyl}-4-{[3-ethyl-4-(methyloxy)phenyl]sulfonyl}-2,5-dimethylpiperazine] were 76 to 100% and 126 to 1000 nM. Taken in the same sequence, the figures for `COc1cccc(S(=O)(=O)N2C[C@@H](C)N(S(=O)(=O)c3ccc(OC)c(OC)c3)[C@@H](C)C2)c1` [Example 33, 1-{[3,4-bis(methyloxy)phenyl]sulfonyl}-2,6-cis-dimethyl-4-{[3-(methyloxy)phenyl]sulfonyl}piperazine] were 51 to 75% and 1260 to 10000 nM.

Molecule `CCCN([C@H]1CCN(S(=O)(=O)c2ccc(OC)c(OC)c2)C1)S(=O)(=O)c1ccc(OC)c(OC)c1` [Example 61, N-((3S)-1-{[3,4-bis(methyloxy)phenyl]sulfonyl}-3-pyrrolidinyl)-3,4-bis(methyloxy)-N-propylbenzenesulfonamide] showed an Emax of 76 to 100% and a concentration for a half-maximal effect (EC50) of 1260 to 10000 nM. On to `COc1ccc(S(=O)(=O)N(CCN(C2CC2)S(=O)(=O)c2ccc(OC)c(OC)c2)C(C)C)cc1OC` [Example 89], for which the Emax was in the range of 76 to 100% and the EC50 is 126 to 1000 nM. Taken in the same sequence, the figures for `COc1ccc(S(=O)(=O)NCC(C)N(C)S(=O)(=O)c2ccc(OC)c(OC)c2)cc1OC` (stereo not shown) [Example 66, N-[2-({[3,4-bis(methyloxy)phenyl]sulfonyl}amino)-1-methylethyl]-N-methyl-3,4-bis(methyloxy)benzenesulfonamide] were 51 to 75% and 1260 to 10000 nM.

Consider `CCN(C[C@H](C)N(CC)S(=O)(=O)c1ccc(OC)c(OC)c1)S(=O)(=O)c1ccc(OC)c(OC)c1` [Example 74, N,N′-(2S)-1,2-propanediylbis[N-ethyl-3,4-bis(methyloxy)benzenesulfonamide]], for which the maximal effect (Emax) was 76 to 100% and the EC50 is 126 to 1000 nM. Regarding `COc1ccc(S(=O)(=O)N2C[C@H](C)N(S(=O)(=O)c3ccc(OC)c(OC)c3)C[C@@H]2C)cc1F` [Example 67, (2S,5S)-1-{[3,4-bis(methyloxy)phenyl]sulfonyl}-4-{[3-fluoro-4-(methyloxy)phenyl]sulfonyl}-2,5-dimethylpiperazine], the EC50 is 126 to 1000 nM. Regarding `COc1ccc(S(=O)(=O)N(C)CCN(C)S(=O)(=O)c2ccc3c(c2)OCCCO3)cc1OC` [Example 73, N-{2-[{[3,4-bis(methyloxy)phenyl]sulfonyl}(methyl)amino]ethyl}-N-methyl-3,4-dihydro-2H-1,5-benzodioxepin-7-sulfonamide], the maximum response (Emax) lay in the range of 76 to 100% and the EC50 is 1260 to 10000 nM.

Molecule `COc1ccc(S(=O)(=O)N2CCN(S(=O)(=O)c3ccc(OC)c(OC)c3)CC(F)C2)cc1OC` [Example 52, 1,4-bis{[3,4-bis(methyloxy)phenyl]sulfonyl}-6-fluorohexahydro-1H-1,4-diazepine] showed an Emax of 76 to 100% and an EC50 of 126 to 1000 nM.

On to `COc1ccc(S(=O)(=O)N2CCN(S(=O)(=O)c3ccc(OC)c(OC)c3)C(C)C2)cc1OC` (stereo not shown) [Example 29, 1,4-bis{[3,4-bis(methyloxy)phenyl]sulfonyl}-2-methylpiperazine], for which the Emax fell in the range of 51 to 75% and the half-maximal effective concentration (EC50) was 126 to 1000 nM. Taken in the same sequence, the figures for `COc1ccc(S(=O)(=O)N2CCN(S(=O)(=O)c3ccc(OC)c(OC)c3)[C@@H](C)[C@H]2C)cc1OC` [Example 40, 1,4-bis{[3,4-bis(methyloxy)phenyl]sulfonyl}-2,3-dimethylpiperazine] were 51 to 75% and 126 to 1000 nM. `COc1ccc(S(=O)(=O)N2CCN(S(=O)(=O)c3ccc(OC)c(OC)c3)c3ccccc32)cc1OC` [Example 83] had a maximum response (Emax) of 51 to 75% and an EC50 of 126 to 1000 nM. The molecule `COc1ccc(S(=O)(=O)N2CCN(S(=O)(=O)c3ccc(OC)c(OC)c3)C(C)(C)C2)cc1OC` [Example 50, 1,4-bis{[3,4-bis(methyloxy)phenyl]sulfonyl}-2,2-dimethylpiperazine] showed an Emax of 76 to 100% and an EC50 of 126 to 1000 nM. `COc1ccc(S(=O)(=O)N2C[C@H](C)N(S(=O)(=O)c3ccc4c(c3)OCCO4)C[C@@H]2C)cc1OC` [Example 71, (2S,5S)-1-{[3,4-bis(methyloxy)phenyl]sulfonyl}-4-(2,3-dihydro-1,4-benzodioxin-6-ylsulfonyl)-2,5-dimethylpiperazine] showed an Emax of 76 to 100% and a concentration for a half-maximal effect (EC50) of 126 to 1000 nM. Taken in the same sequence, the figures for `COc1ccc(S(=O)(=O)N2CCN(S(=O)(=O)c3ccc(OC)c(OC)c3)C(=O)C2=O)cc1OC` [Example 27, 1,4-bis{[3,4-bis(methyloxy)phenyl]sulfonyl}-2,3-piperazinedione] were 51 to 75% and 1260 to 10000 nM. Taken in the same sequence, the figures for `CCCN(C[C@H]1CCCN1S(=O)(=O)c1ccc(OC)c(OC)c1)S(=O)(=O)c1ccc(OC)c(OC)c1` [Example 99, N-[((2R)-1-{[3,4-bis(methyloxy)phenyl]sulfonyl}-2-pyrrolidinyl)methyl]-3,4-bis(methyloxy)-N-propylbenzenesulfonamide] were 76 to 100% and less than 126 nM. As to `COc1cccc(S(=O)(=O)N2[C@H](C)CN(S(=O)(=O)c3ccc(OC)c(OC)c3)C[C@@H]2C)c1` [Example 80], the Emax lay in the range of 51 to 75% and the EC50 is 1260 to 10000 nM.

On to `COc1ccc(S(=O)(=O)N2C[C@H](C)N(S(=O)(=O)c3ccc(OC)c(OC)c3)C[C@H]2C)cc1OC` [Example 22, trans-1,4-bis{[3,4-bis(methyloxy)phenyl]sulfonyl}-2,5-dimethylpiperazine], for which the maximal response (Emax) was in the range of 51 to 75% and the EC50 was 1260 to 10000 nM. Taken in the same sequence, the figures for `COc1ccc(S(=O)(=O)N2CC(C)(C)N(S(=O)(=O)c3ccc(OC)c(OC)c3)CC2=O)cc1OC` [Example 48, 1,4-bis{[3,4-bis(methyloxy)phenyl]sulfonyl}-5,5-dimethyl-2-piperazinone] were 76 to 100% and 1260 to 10000 nM. Taken in the same sequence, the figures for `COc1ccc(S(=O)(=O)N2CCCN(S(=O)(=O)c3ccc(OC)c(OC)c3)C(C)C2)cc1OC` (stereo not shown) [Example 49, 1,4-bis{[3,4-bis(methyloxy)phenyl]sulfonyl}-2-methylhexahydro-1H-1,4-diazepine] were 51 to 75% and 1260 to 10000 nM. The molecule `COc1ccc(S(=O)(=O)N2CCC(=O)N(S(=O)(=O)c3ccc(OC)c(OC)c3)CC2)cc1OC` [Example 28, 1,4-bis{[3,4-bis(methyloxy)phenyl]sulfonyl}hexahydro-5H-1,4-diazepin-5-one] had an Emax of 51 to 75% and a concentration giving a half-maximal response (EC50) of 126 to 1000 nM.
